Assay results taken from US20050009759A1 (priority 2001, published 2005).
Converted amounts (≈) assume the structure as drawn. Read-outs that look alike come from different tables or passages of the source.

Experiments:
Solubility in water = assay type: physicochemical; conditions: for solubility: water, in water / aqueous solvents
L1210 cells = assay: In vitro cytotoxicity, microculture tetrazolium assay (MTA); assay type: cell-based; conditions: Mus musculus
Description: Cytotoxicity was tested against L1210 (mouse leukemic cell line) cells using the MTA assay.
L1210 cells were cultivated in RPMI 1640 medium (Gibco) supplemented with 10% fetal calf serum, 2 mM L-glutaine, 100 units/mL penicillin, 100 µg/mL streptomycin, and 10 mM HEPES buffer (pH=7.4). Cytotoxicity was measured by the microculture tetrazolium assay (MTA). Cells were exposed to graded concentrations of drug (nine serial dilutions in triplicate) for 48 h. Results are expressed as IC50, the concentration which reduced by 50% the optical density of treated cells with respect to the optical density of untreated controls.

[1] = Stability in phosphate buffer solution followed by HPLC; assay type: physicochemical; conditions: phosphate buffer pH 7 (0.02 M, pH 7.2), 37° C.
Description: The stability of 1a was followed by HPLC measurements in buffer solution at pH 7 for 24 hours. More than 90% of the prodrug was recovered after that time, meaning that the prodrug 1a is stable in vitro.
(§1) Good separation in a short delay was obtained with a reversed-phase Phenyl analytical column (Spherisorb 250×4,6) using isocratic conditions (1 mL/min) of 60% phosphate buffer (0.02 M, pH 3) and 40% acetonitrile with UV detection at 254 nm. Using these conditions the retention time of etoposide, prodrug, and cyclized spacer were 4.9, 3.4, 5.8. min., respectively.
A solution of […] of prodrug 1a in 0.02 M phosphate buffer (pH 7.2) was incubated for various times at 37° C. Aliquots (100 μL) were taken at various times and analyzed by HPLC after dilution with eluent (300 μL).

[2] = molecular target: E. coli β-D-glucuronidase (Escherichia coli, UniProt P05804); assay: Enzymatic cleavage by E. coli β-D-glucuronidase (kinetics of drug release, HPLC); assay type: biochemical; conditions: E. coli β-D-glucuronidase in phosphate buffer; 500 μg/mL prodrug, 20 μg/mL E. coli β-D-glucuronidase, phosphate buffer pH 7.2, 37° C.
Description: Prodrug 1a (500 μg/mp) was incubated with E. coli β-D-glucuronidase (20 μ/mL). Aliquot samples were analysed by IPLC at different times (FIG. 1: Enzymatic cleavage of prodrug 1a).
as §1
Hydrolysis was investigated by incubating a solution of 500 μg/mL of prodrug 3 and 20 μg/mL of E. coli β-D-glucuronidase in 0.02 M phosphate buffer (pH 7.2) at 37° C. Aliquots (100 μl) were taken at various times and analyzed by HPLC after dilution with 300 μl of eluent.

E. coli β-D-glucuronidase, sequence (P05804 whole entry): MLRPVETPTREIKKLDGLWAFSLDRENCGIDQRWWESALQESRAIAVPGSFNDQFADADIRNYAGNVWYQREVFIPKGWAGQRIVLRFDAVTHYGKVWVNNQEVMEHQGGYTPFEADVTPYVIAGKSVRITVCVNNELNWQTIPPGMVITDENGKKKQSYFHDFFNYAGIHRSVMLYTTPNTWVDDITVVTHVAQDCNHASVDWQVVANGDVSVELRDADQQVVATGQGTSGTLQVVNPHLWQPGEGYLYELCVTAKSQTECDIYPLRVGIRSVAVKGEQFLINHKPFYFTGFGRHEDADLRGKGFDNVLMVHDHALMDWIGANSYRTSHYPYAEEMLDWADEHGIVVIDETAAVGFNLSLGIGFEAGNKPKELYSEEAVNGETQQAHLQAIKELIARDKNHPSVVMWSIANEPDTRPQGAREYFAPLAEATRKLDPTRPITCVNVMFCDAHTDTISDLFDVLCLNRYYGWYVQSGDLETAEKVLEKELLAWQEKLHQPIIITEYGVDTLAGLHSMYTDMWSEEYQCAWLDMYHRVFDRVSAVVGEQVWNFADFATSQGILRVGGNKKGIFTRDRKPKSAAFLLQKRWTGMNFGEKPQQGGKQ

Structure (SMILES) | solubility (Solubility in water) | IC50 (L1210 cells; L1210 cell line, 48 h exposure, without enzyme, read-out: IC50) | fold more soluble than the corresponding drug (Solubility in water; in water, comparable conditions, versus etoposide) | IC50 (L1210 cells; L1210, 48 h) | IC50 (L1210 cells; L1210, read-out: IC50 after hydrolysis by β-glucuronidase) | prodrug recovered/remaining after 24 hours [1] | half-life at 500 μg/mL [2] | melting point
COc1cc([C@@H]2c3cc4c(cc3[C@@H](O[C@@H]3O[C@@H]5CO[C@@H](C)O[C@H]5[C@H](O)[C@H]3O)[C@H]3COC(=O)[C@H]23)OCO4)cc(OC)c1O [etoposide, reference compound] | 0.1 mg/mL (≈ 0.17 mM) | 0.834 µM | – | – | – | – | – | –
COc1cc([C@@H]2c3cc4c(cc3C(OC3OC5COC(C)O[C@H]5C(O)[C@@H]3O)[C@H]3COC(=O)[C@H]23)OCO4)cc(OC)c1OC(=O)N(C)c1cc([N+](=O)[O-])ccc1O[C@@H]1OC(C(=O)O)[C@@H](O)C(O)C1O (stereo partly drawn) [prodrug 1a] | ~20 mg/mL (≈ 20.9 mM) | – | approximately 200 fold | 50.2 µM | 0.93 µM | More than 90% | < 25 min | 186 °C
